Source: patent US9232796B2, “Herbicidal compositions comprising 4-amino-3-chloro-5-fluoro-6-(4-chloro-2-fluoro-3-methoxyphenyl) pyridine-2-carboxylic acid or a derivative thereof and acetyl-CoA carboxylase (ACCase) inhibitors” (DOW AGROSCIENCES LLC, priority 2012, dated 2016)

Columns and labels:
[1] = tested on: AVEFA; experiment: Example III postemergence foliar-applied, greenhouse, weeds common to row crops such as corn and soybeans; format: in vivo, Avena fatua L.
Description: Seeds or nutlets of the desired test plant species were planted in a soil matrix prepared by mixing a loam or sandy loam soil (e.g., 28.6 percent silt, 18.8 percent clay, and 52.6 percent sand, with a pH of about 5.8 and an organic matter content of about 1.8 percent) and calcareous grit in an 80 to 20 ratio. The soil matrix was contained in plastic pots with a surface area of 84.6 square centimeters (cm^2) and a volume of 560 cubic centimeters (cm^3). When required to ensure good germination and healthy plants, a fungicide treatment and/or other chemical or physical treatment was applied. The plants were grown for 7-31 days (d) in a greenhouse with an approximate 15 hour (h) photoperiod which was maintained at about 23-29° C. during the day and 22-28° C. during the night. Nutrients (Peters Excel® 15-5-15 5-Ca 2-Mg) and water were added on a regular basis and supplemental lighting was provided with overhead metal halide 1000-Watt lamps as necessary. The plants were employed for testing when they reached the first, second, or third true leaf stage.
(§1) Treatment requirements were calculated based upon the rates being tested, the concentration of active ingredient or acid equivalent in the formulation, and a 12 mL application volume at a rate of 187 L/ha.
(§2) Treatments consisted of the acid or esters of 4-amino-3-chloro-5-fluoro-6-(4-chloro-2-fluoro-3-methoxy-phenyl)pyridine-2-carboxylic acid (Compound A), each formulated as an SC (suspension concentrate), and various herbicidal components alone and in combination.
Other herbicidal components were applied on an acid equivalent basis and included acetyl coA carboxylase (ACCase)-inhibiting herbicide (cyclohexanedione and aryloxyphenoxypropionate chemical classes) quizalofop-p-ethyl formulated as Assure® II.
All stock solutions and applications solutions were visually inspected for compound compatibility prior to application. Compound requirements are based upon a 12 mL application volume at a rate of 187 liters per hectare (L/ha). Formulated compounds were applied to the plant material with an overhead Mandel track sprayer equipped with 8002E nozzles calibrated to deliver 187 L/ha over an application area of 0.503 square meters (m^2) at a spray height of 18 to 20 inches (46 to 50 cm) above the average plant canopy height. Control plants were sprayed in the same manner with the solvent blank.
(§3) The treated plants and control plants were placed in a greenhouse as described above and watered by sub-irrigation to prevent wash-off of the test compounds. After approximately 2 weeks, the condition of the test plants as compared with that of the untreated plants was determined visually and scored on a scale of 0 to 100 percent where 0 corresponds to no injury or growth inhibition and 100 corresponds to complete kill.
Colby's equation was used to determine the herbicidal effects expected from the mixtures (Colby, S. R. 1967. Calculation of the synergistic and antagonistic response of herbicide combinations. Weeds 15:20-22.).
The following equation was used to calculate the expected activity of mixtures containing two active ingredients, A and B: Expected=A+B−(A×B/100)

[2] = tested on: ISCRU; experiment: Example I postemergence foliar-applied, greenhouse, direct seeded rice weeds; format: in vivo, Ischaemum rugosum Salisb.
Description: Seeds or nutlets of the desired test plant species were planted in a soil matrix prepared by mixing a loam or sandy loam soil (e.g., 28.6 percent silt, 18.8 percent clay, and 52.6 percent sand, with a pH of about 5.8 and an organic matter content of about 1.8 percent) and calcareous grit in an 80 to 20 ratio. The soil matrix was contained in plastic pots with a volume of 1 quart and a surface area of 83.6 square centimeters (cm^2). When required to ensure good germination and healthy plants, a fungicide treatment and/or other chemical or physical treatment was applied. The plants were grown for 8-22 days in a greenhouse with an approximate 14 hr. photoperiod which was maintained at about 29° C. during the day and 26° C. during the night. Nutrients (Peters Excel® 15-5-15 5-Ca 2-Mg and iron chelate) were applied in the irrigation solution as needed and water was added on a regular basis. Supplemental lighting was provided with overhead metal halide 1000-Watt lamps as necessary. The plants were employed for testing when they reached the first through fourth true leaf stage.
as §2
Other herbicidal components were applied on an acid equivalent (ae) or active ingredient (ai) basis and included acetyl coA carboxylase (ACCase)-inhibiting herbicides (cyclohexanedione and aryloxyphenoxypropionate chemical classes) cyhalofop-butyl formulated as Clincher® SF (285 gr ai/L EC), diclofop-methyl formulated as Hoelon® 3EC, fenoxaprop-p-ethyl+isoxadifen-ethyl formulated as RiceStar® HT (0.58 lb./gal EC), fenoxaprop-p-ethyl+mefenpyr diethyl formulated as Puma® IEC, metamifop formulated as Metamifop EC, haloxyfop-methyl formulated as Gallant Super®, fluazifop-p-butyl formulated as Fusilade® DX, quizalofop-p-ethyl formulated as Assure® II, profoxydim formulated as Aura® 20EC, clethodim applied as Intensity®, sethoxydim formulated as Poast®, and tralkoxydim formulated as Achieve®.
as §1
For treatments comprised of formulated compounds, measured amounts of compounds were placed individually in 25 mL glass vials and diluted in a volume of 1.25% (v/v) Agri-Dex® crop oil concentrated to obtain 12× stock solutions. […] Application solutions were prepared by adding an appropriate amount of each stock solution (e.g., 1 mL) and diluted to the appropriate final concentrations with the addition of 10 mL of an aqueous mixture of 1.25% (v/v) crop oil concentrate so that the final spray solutions contained 1.25+/−0.05% (v/v) crop oil concentrate.
All stock solutions and applications solutions were visually inspected for compound compatibility prior to application. […]
as §3, with “3” for “2”, “kill. […]” for “kill.”

COc1c(Cl)ccc(-c2nc(C(=O)O)c(Cl)c(N)c2F)c1F [Compound A Acid, 4-amino-3-chloro-6-(4-chloro-2-fluoro-3-methoxyphenyl)-5-fluoropyridine-2-carboxylic acid]
Visual Weed Control (%) - 14 DAA AVEFA Obs ([1]; Compound A Acid 3.75 gae/ha): 0%
Visual Weed Control (%) - 14 DAA AVEFA Obs ([1]; Compound A Acid 7.5 gae/ha): 0%
Visual Weed Control (%) - 14 DAA AVEFA Obs ([1]; Compound A Acid 15 gae/ha): 0%
Visual Weed Control (%) - 26 DAA ISCRU Obs ([2]; 8.75 gae/ha): 37%
Visual Weed Control (%) - 26 DAA ISCRU Obs ([2]; 17.5 gae/ha): 63%

COc1c(Cl)ccc(-c2nc(C(=O)OCc3ccccc3)c(Cl)c(N)c2F)c1F [Compound A Benzyl Ester, benzyl ester of 4-amino-3-chloro-5-fluoro-6-(4-chloro-2-fluoro-3-methoxy-phenyl)pyridine-2-carboxylic acid]
Visual Weed Control (%) - 14 DAA AVEFA Obs ([1]; Compound A Benzyl Ester 3.75 gae/ha): 10%
Visual Weed Control (%) - 14 DAA AVEFA Obs ([1]; Compound A Benzyl Ester 7.5 gae/ha): 0%
Visual Weed Control (%) - 14 DAA AVEFA Obs ([1]; Compound A Benzyl Ester 15 gae/ha): 10%
Visual Weed Control (%) - 26 DAA ISCRU Obs ([2]; 8.75 gae/ha): 18%
Visual Weed Control (%) - 26 DAA ISCRU Obs ([2]; 17.5 gae/ha): 33%

CCCCOC(=O)[C@@H](C)Oc1ccc(Oc2ccc(C#N)cc2F)cc1 [Cyhalofop-butyl, butyl(2R)-2-[4-(4-cyano-2-fluorophenoxy)phenoxy]propanoate, reference compound]
Visual Weed Control (%) - 26 DAA ISCRU Obs ([2]; 140 gai/ha): 10%

CCOC(=O)[C@@H](C)Oc1ccc(Oc2cnc3cc(Cl)ccc3n2)cc1 [Quizalofop-p-ethyl, ethyl(2R)-2-[4-[(6-chloro-2-quinoxalinyl)oxy]phenoxy]propanoate, reference compound]
Visual Weed Control (%) - 14 DAA AVEFA Obs ([1]; Quizalofop-p-ethyl 14.25 gae/ha): 40%
